In PMC7205388, “Per-6-Thiolated Cyclodextrins: A Novel Type of Permeation Enhancing Excipients for BCS Class IV Drugs” (ACS Applied Materials & Interfaces, 2020):

Columns and labels:
[1] = Quantification of −SH content with Ellman's reagent; format: physicochemical
Protocol: Per-6-thiolated α-CD was assessed for the amount of thiol by using Ellman’s reagent.[16] The calibration curve was established using L-cysteine.

[2] = pKa of −SH groups by photometric method; format: physicochemical; settings: 0.001 M HCl containing 0.1 M NaCl, titrated with 0.01% NaOH; absorbance at 242 nm, 0.1% m/v
Protocol: As the stability of sulfhydryl groups depends on thiolate anions concentration, the pKa value of −SH groups on per-6-thiolated α-CD was determined via an established photometric method with some modifications.[17] Briefly, ionic strength was stabilized by dissolving per-6-thiolated α-CD (0.1% m/v) in 0.001 M HCl containing 0.1 M NaCl. Increasing volumes of 0.01% NaOH were added to per-6-thiolated CD solutions that were continuously measured regarding pH and absorbance at 242 nm. The pKa was determined by plotting pH versus −log[(Amax – Ai)/Ai].

Caco-2 cell monolayer = assay: TEER measurement on the Caco-2 cell monolayer; format: cell-based, human; settings: for decrease in TEER: Caco-2 monolayer, during 3 h permeation experiment; for TEER regained in comparison to initial values: after cell washing and incubating with MEM
Protocol: Permeation studies on the Caco-2 cell monolayer were executed as described previously.[23] Caco-2 cells at a density of 0.6 × 10^5 cells/cm^2 were seeded onto 24-well plates with ThinCert inserts (pore-size: 400 μm, Greiner Bio-One, Kremsmünster, Austria). Cells were cultured in MEM containing 20% FCS in an atmosphere of 5% CO2 and 95% humidity at 37 °C. The medium was renewed every other day for 21 days. For permeation studies, only cell monolayers showing a transepithelial electrical resistance (TEER) in the range of 300–500 Ω cm^2 were applied, which were determined with an EVOM instrument. TEER was also determined at time point 3 h representing the end of the permeation experiment and after 24 and 48 h to confirm monolayer integrity. Before the start of the experiment, cells were washed with PBS. Thereafter, 500 μL of MEM without FCS was transferred to the donor chamber and 1000 μL of the same medium was transferred to an accepter chamber.

[3] = Phase-solubility study with FUR (apparent stability constant KC); format: physicochemical; settings: aqueous solution, room temperature, 1:1 complex
Protocol: The suspension was homogenized at room temperature using a thermomixer (Thermomixer C, Eppendorf, Austria) at 750 rpm until equilibrium in solubility was reached (3–4 days).

[4] = Stability of −SH groups toward oxidation at different pH; format: physicochemical
Protocol: Furthermore, the stability of the thiolated CD was measured under different pH. In short, per-6-thiolated α-CD (0.25% m/v) was hydrated in water, and pH was adjusted to 4 and 5 with acetate buffer (50 mM), to 6 with phosphate buffer (50 mM), and to 7.2 with Tris buffer (50 mM). Test samples were kept under continuous stirring at 37 °C. After specific time intervals, aliquots of 500 μL were taken. Any further reaction was quenched by adding 50 μL of 1 M HCl to each aliquot.[18] Sulfhydryl groups were quantified using Ellman’s reagent.

[5] = Resazurin cytotoxicity assay on Caco-2 cells; format: cell-based, human; settings: human, read-out: cell viability
Protocol: (§1) The impact of per-6-thiolated α-CD on viability of human colorectal carcinoma (Caco-2) cells was evaluated by resazurin assay to confirm the safety of the newly synthesized oligomer. For this purpose, Caco-2 cells were obtained from the European Collection of Cell Cultures (Salisbury, UK). Caco-2 cells at a density of 2.5 × 10^4 cells/well were suspended in 500 μL of MEM and seeded to a 24-well plate. The plate was incubated at an atmosphere of CO2 (5%) and relative humidity (95%) at 37 °C for 2 weeks. During this culture period, the medium was replaced on alternative days.
(§2) Toxicity assay was performed to investigate the cytotoxic potential of per-6-thiolated α-CD by quantifying resorufin formed by the reduction of resazurin. On the day of the experiment, cells of around 80% confluency were washed two times with preheated 10 mM PBS pH 7.4. The oligomer solutions (500 μL) of per-6-thiolated and unmodified α-CD (0.5% m/v) in white MEM, 4% (v/v) Triton X-100 acting as a negative control and white MEM acting as a positive control were transferred to the cell culture wells.
(§3) After 3 and 24 h, test samples were withdrawn, and the cells were washed two times with preheated PBS. In the following, 500 μL of resazurin (2.2 μM) solution was added, and cells were further incubated for 3 h. Aliquots (100 μL) were inserted to a 96-well plate, and the fluorescence was analyzed at emission and excitation wavelength of 590 and 540 nm utilizing a microplate reader (M-200 spectrometer; Tecan infinite, Austria). Cell viability of cells was measured using eq 1 [drawing 1] 1

[6] = tested on: human colorectal carcinoma (Caco-2) cells; assay: Resazurin cytotoxicity assay on Caco-2 cells; format: cell-based; settings: 0.5% (m/v), within 24 h
Protocol: as §1, §2, §3

| Compound | amount of −S–S– groups on the CD backbone [1] | amount of −SH groups on the CD backbone ([1]; Ellman's reagent) | pKa [2] | decrease in TEER (Caco-2 cell monolayer) | TEER regained in comparison to initial values (Caco-2 cell monolayer; after 24 h) | TEER regained in comparison to initial values (Caco-2 cell monolayer; after 48 h) | apparent stability constant (KC) with FUR [3] | −SH groups oxidized ([4]; after 3 h at pH 5, 37 °C) | stability of −SH groups ([4]; pH 4, 37 °C, 0.25% m/v) | stability of −SH groups ([4]; pH ≤ 4) | viability at 3 h, 0.5 % (m/v) ([5]; after 3 h) | viability at 24 h, 0.5 % (m/v) ([5]; after 24 h) | cytotoxicity [6] |
| --- | --- | --- | --- | --- | --- | --- | --- | --- | --- | --- | --- | --- | --- |
| O[C@@H]1[C@@H](O)[C@H]2O[C@H]3[C@H](O)[C@@H](O)[C@@H](O[C@H]4[C@H](O)[C@@H](O)[C@@H](O[C@H]5[C@H](O)[C@@H](O)[C@@H](O[C@H]6[C@H](O)[C@@H](O)[C@@H](O[C@H]7[C@H](O)[C@@H](O)[C@@H](O[C@@H]1[C@@H](CS)O2)O[C@@H]7CS)O[C@@H]6CS)O[C@@H]5CS)O[C@@H]4CS)O[C@@H]3CS [per-6-thiolated α-CD, per-6-thiolated α-cyclodextrin] | 786 ± 139 µmol/g | 4244 ± 402 µmol/g | 8.1 | up to 28% | 82% | 90% | 1090.9 M^–1 | 15% | stable | stable | > 88% | > 88% | not cytotoxic |
| OC[C@H]1O[C@@H]2O[C@H]3[C@H](O)[C@@H](O)[C@@H](O[C@H]4[C@H](O)[C@@H](O)[C@@H](O[C@H]5[C@H](O)[C@@H](O)[C@@H](O[C@H]6[C@H](O)[C@@H](O)[C@@H](O[C@H]7[C@H](O)[C@@H](O)[C@@H](O[C@H]1[C@H](O)[C@H]2O)O[C@@H]7CO)O[C@@H]6CO)O[C@@H]5CO)O[C@@H]4CO)O[C@@H]3CO [α-CD, α-cyclodextrin, reference compound] |  |  |  | ~15% |  |  | 1050.7 M^–1 |  |  |  |  |  |  |
